Series [1] addresses serine hydroxymethyl transferase (SHMT) apoenzyme. The following applies: cited from earlier work.
Series [2] has as its target T1, pyridoxine (pyridoxamine) 5′-phosphate oxidase (PNPOx) (Homo sapiens, UniProt Q9NVS9).
T1 sequence (Q9NVS9 1-261): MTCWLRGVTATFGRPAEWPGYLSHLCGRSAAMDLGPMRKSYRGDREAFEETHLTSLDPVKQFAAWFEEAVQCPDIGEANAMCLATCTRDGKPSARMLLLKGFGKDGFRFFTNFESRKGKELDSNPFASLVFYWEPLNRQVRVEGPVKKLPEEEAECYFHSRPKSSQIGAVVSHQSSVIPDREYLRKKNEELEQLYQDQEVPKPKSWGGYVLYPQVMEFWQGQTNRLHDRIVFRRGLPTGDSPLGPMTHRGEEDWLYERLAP
The following applies: read-out: Km of PNPOx; cited from earlier work.

A short description of series [3]: Erythrocyte pharmacokinetics of vitamin B6 after intraperitoneal high-dose pyridoxine or pyridoxamine in mice. The following applies: erythrocytes, 450 mg/kg intraperitoneal.
Experimental: Erythrocyte pyridoxamine 5′-phosphate (PMP) and pyridoxal 5′-phosphate (PLP) levels were measured in mice after intraperitoneal administration of high doses of pyridoxine (PN) or pyridoxamine (PM).
The conditions of series [4]: cited from earlier work.
The nature of series [5]: Pilot study in patients with advanced breast carcinoma: assessment of toxicity. The following applies: human, in vivo. An excerpt:
Doxorubicin comprised in FAC and AVCF regimens was suspended in case of ≥10% decrease in left ventricular ejection fraction from baseline value. […] Vinorelbine-containing chemotherapy (i.e., VCbF) was indicated instead of TCbF for patients who had severe hematopoietic impairment or prior taxane-induced toxicity and was used in substitution for TCbF in cases of paclitaxel-induced SPN occurring in patients throughout the study.
Patients with paclitaxel induced neuropathy, whose chemotherapy was either interrupted or pursued with VCbF had further progressive decrease of neurologic symptoms, and then disappearance occurring in most patients during follow-up. […] Except for interruption of paclitaxel as described above, no dose reductions of any cytostatic agent or increasing intervals between courses due to unusual or unexpectedly excessive hematologic and/or visceral toxicity were required. The single case of acute myelogenous leukemia carrying the 17q-chromosome aberration marker occurred 18 months after cessation of induction treatment in one patient who had prior genotoxic cytostatics and radiotherapy.

Structures are written as SMILES. Read-outs that look alike come from different tables or passages of the source.

For `Cc1ncc(COP(=O)(O)O)c(C=O)c1O` [PLP, pyridoxal 5′-phosphate], the Kd in series [1] (read-out: Kd of SHMT binding to cofactor, lower end of reported range) is no less than 0.25 µM; in series [1] (read-out: Kd of SHMT binding to cofactor, upper end of reported range), no more than 27 µM.

For `Cc1ncc(COP(=O)(O)O)c(CN)c1O` [PMP, pyridoxamine 5′-phosphate], in series [2], the Km is 1 µM.

For `Cc1ncc(CO)c(CN)c1O` [PM, pyridoxamine], in series [3], the “AUC 12 h of B6 vitamer: PLP” value is 14,988 nmol/L cells · 12 h and the “AUC 12 h of B6 vitamer: PMP” value is recorded as 19,356 nmol/L cells · 12 h.

Turning to `Cc1ncc(CO)c(CO)c1O` [PN, pyridoxine], in series [4] (extremely high doses for long periods of time), the toxicity in man entry is on record as “sensory peripheral neuropathy”. Besides, the safety in man entry in series [4] (high doses used for treatment of various conditions) was “safe”. Moreover, the “sensory peripheral neuropathy with high cumulative doses of pyridoxine, versus that expected with paclitaxel in TCbF” value in series [5] is listed as “not accompanied with greater incidence, or higher grades, of sensory peripheral neuropathy”. In series [3], the “AUC 12 h of B6 vitamer: PLP” value is recorded as 2,231 nmol/L cells · 12 h and the “AUC 12 h of B6 vitamer: PMP” value is reported as 11,597 nmol/L cells · 12 h.

Usually Kd stands for the free concentration of one partner at which half of the binding sites on the other are occupied at equilibrium, for simple one-to-one binding. As usually defined, the Km is the concentration of substrate that gives half-maximal velocity.
